In patent publication US20210121527A1, “METHODS OF TREATING MINIMAL RESIDUAL CANCER” (ICAHN SCHOOL OF MEDICINE AT MOUNT SINAI, priority 2018, published 2021):

Columns and labels:
PERK = molecular target: T1, PERK (Mus musculus, UniProt Q9Z2B5); experiment: IHC of P-PERK and P-eIF2α in tissues of treated MMTV-HER2 mice; type: in vivo; conditions: 50 mpk i.p. daily, two weeks
T1 construct: from tissue; host or cells: mammary gland and pancreas sections of MMTV-HER2 (FVB/N-Tg(MMTVneu)) female mice
T1 sequence (Q9Z2B5 29-1114): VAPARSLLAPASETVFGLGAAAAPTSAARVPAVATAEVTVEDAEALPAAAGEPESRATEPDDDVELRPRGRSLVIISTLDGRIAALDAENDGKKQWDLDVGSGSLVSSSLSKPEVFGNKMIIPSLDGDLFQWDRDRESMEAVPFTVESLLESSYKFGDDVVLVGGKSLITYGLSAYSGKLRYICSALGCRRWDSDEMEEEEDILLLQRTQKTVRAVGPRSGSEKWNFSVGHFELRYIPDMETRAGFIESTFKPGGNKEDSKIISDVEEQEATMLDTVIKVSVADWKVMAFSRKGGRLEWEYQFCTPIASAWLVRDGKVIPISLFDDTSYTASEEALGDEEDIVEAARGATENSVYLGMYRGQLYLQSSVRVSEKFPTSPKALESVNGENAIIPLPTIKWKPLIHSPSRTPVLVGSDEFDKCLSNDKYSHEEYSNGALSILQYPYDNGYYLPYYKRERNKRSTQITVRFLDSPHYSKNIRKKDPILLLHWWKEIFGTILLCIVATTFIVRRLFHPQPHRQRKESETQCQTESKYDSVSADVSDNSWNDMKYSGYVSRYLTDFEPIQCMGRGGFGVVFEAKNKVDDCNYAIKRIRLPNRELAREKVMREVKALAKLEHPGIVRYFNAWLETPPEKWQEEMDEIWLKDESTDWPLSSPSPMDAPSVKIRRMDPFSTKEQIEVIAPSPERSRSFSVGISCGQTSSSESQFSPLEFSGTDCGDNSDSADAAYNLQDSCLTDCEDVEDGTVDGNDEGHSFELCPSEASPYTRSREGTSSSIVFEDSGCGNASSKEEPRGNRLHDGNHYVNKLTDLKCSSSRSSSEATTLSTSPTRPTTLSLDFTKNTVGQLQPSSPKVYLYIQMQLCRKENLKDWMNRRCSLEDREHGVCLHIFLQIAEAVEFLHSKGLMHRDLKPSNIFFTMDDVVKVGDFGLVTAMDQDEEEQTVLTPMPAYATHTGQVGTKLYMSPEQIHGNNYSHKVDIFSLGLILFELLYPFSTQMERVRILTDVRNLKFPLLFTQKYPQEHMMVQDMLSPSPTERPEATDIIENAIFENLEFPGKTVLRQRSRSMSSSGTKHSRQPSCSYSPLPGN
Description: Mice, tumor growth, and tissue processing: The FVB/N-Tg (MMTVneu) mouse strain was obtained from Jackson Laboratories (Sacramento, Calif.). […] Before being used in any experiment, females underwent one round of pregnancy and at least two weeks of no lactation after weaning. Females between 24-32 weeks of age were injected intraperitoneally with vehicle (90% corn oil, 10% ethanol) or LY4 (50 mpk) daily, for two weeks. For the combination treatment, females 24-32 weeks of age were treated daily by oral gavage with Abemaciclib (50 mpk) for 4 weeks before starting the treatment described earlier with LY4. Tumor volumes were measured using the formula (Dxd^2)/2, where D is the longest and d is the shortest diameter. For CTC count, animals were anesthetized and whole blood was extracted by cardiac puncture. Mammary glands, lungs, and tumors were collected and fixed in 10% buffered formalin overnight before paraffin embedding. The bone marrow from the two lower limbs was flushed with a 26 G needle and further processed by Ficoll density gradient centrifugation. For CTC as well as for DTC detection in bone marrow, tissues were depleted of mature hematopoietic cells by anti-mouse antibody-labeled magnetic bead separation (Miltenyi Biotec, San Diego, Calif.) before fixation in formalin for 20 minutes at 4° C. […]

HER2^+ tumors = experiment: Growth of overt tumors in MMTV-HER2 females; type: in vivo, mouse
Description: (§1) Mice, tumor growth, and tissue processing: The FVB/N-Tg (MMTVneu) mouse strain was obtained from Jackson Laboratories (Sacramento, Calif.). […] Before being used in any experiment, females underwent one round of pregnancy and at least two weeks of no lactation after weaning. Females between 24-32 weeks of age were injected intraperitoneally with vehicle (90% corn oil, 10% ethanol) or LY4 (50 mpk) daily, for two weeks. For the combination treatment, females 24-32 weeks of age were treated daily by oral gavage with Abemaciclib (50 mpk) for 4 weeks before starting the treatment described earlier with LY4. Tumor volumes were measured using the formula (Dxd^2)/2, where D is the longest and d is the shortest diameter. For CTC count, animals were anesthetized and whole blood was extracted by cardiac puncture. Mammary glands, lungs, and tumors were collected and fixed in 10% buffered formalin overnight before paraffin embedding. The bone marrow from the two lower limbs was flushed with a 26 G needle and further processed by Ficoll density gradient centrifugation. For CTC as well as for DTC detection in bone marrow, tissues were depleted of mature hematopoietic cells by anti-mouse antibody-labeled magnetic bead separation (Miltenyi Biotec, San Diego, Calif.) before fixation in formalin for 20 minutes at 4° C.
IHC and IF: IHC and IF from paraffin-embedded sections was performed as previously described (Avivar-Valderas et al., “Regulation of Autophagy during ECM Detachment is Linked to a Selective Inhibition of mTORC1 by PERK,” Oncogene 32(41):4932-40 (2013), which is hereby incorporated by reference in its entirety). Briefly, slides were dewaxed and serially rehydrated. Heat-induced antigen retrieval was performed in either citrate buffer (10 mM, pH 6), EDTA buffer (1 mM, pH 8), or Tris/EDTA (pH9). Slides were further permeabilized in 0.1% Triton™-X100, blocked and incubated with primary antibody overnight at 4° C. at 1:50-1:200 dilution. For IHC, an additional step of endogenous peroxidase and avidin/biotin quenching was performed before primary antibody incubation. […] Next, slides were incubated in secondary antibodies (Life Technologies, Norwalk, Conn.) and mounted. For IHC, sections were processed using VectaStain ABC Elite kit (Vector Laboratories, Bulingame, Calif.) and DAB Substrate kit for peroxidase labelling (Vector Laboratories) and mounted in VectaMount medium (Vector laboratories). For IF, sections were mounted in ProLong Gold Antifade aqueous medium (Thermo Fisher, Waltham, Mass.).
TUNEL in situ cell death detection: Apoptosis levels were evaluated using the In situ Cell Death Detection kit, AP (Roche, Basel, Switzerland). Paraffin sections from tumors were dewaxed, rehydrated, and permeabilized in phosphate buffered saline (PBS) 0.2% TRITON™-X100 for 8 minutes. Then, slides were washed and blocked in 20% normal goat serum for 1 hour at 37° C. The TUNEL reaction mixture was then added and let go for 1 hour at 37° C. The reaction was stopped by incubating with Buffer I(0.3 M Sodium chloride, 30 mM Sodium citrate). Next, the slides were incubated with anti-fluorescein-AP antibody for 30 minutes at 37° C. After three washes in Tris buffered saline (TBS), slides were incubated in alkaline phosphatase substrate in 0.1% TWEEN™-20 for 20 min at room temperature. Finally, the slides were mounted using aqueous mounting medium. The percentage of TUNEL positive cells was calculated using Image J software (NIH).

MMTV-HER2 mammary glands = experiment: Mammary gland whole mount and histology of early lesions in MMTV-HER2 mice; type: in vivo, mouse; conditions: 50 mpk, two weeks
Description: as §1
Mammary gland whole mount staining. Mammary glands fixed in 10% buffered formalin were incubated in Carmine Alum stain (Carmine 0.2%, Aluminum potassium sulfate 0.5%) (Sigma, St. Louis, Mo.) for 2 days. Then, they were dehydrated and transferred to methyl salicylate solution before imaging using a stereomicroscope.
The scoring for P-HER2 levels is explained in FIG. 10A. For the scoring of CK8/18 and SMA in mammary gland ducts, 20 low magnification fields were evaluated per animal for the expression of CK8/18 as negative (0), low (1), or high (2) and the same for SMA and the sum of the two scores was considered as the final score (from 0 to 4).

[1] = system: Braf-mutant melanoma WM35 cells; experiment: WM35 melanoma cell viability in 2D and 3D culture, GADD34 western blot; type: cell-based; conditions: after persistent treatment with Abemaciclib
Description: FIGS. 12A-12G show proposed mono or combination therapies that include the use of LY4 and experiments showing that the treatment of melanoma cells with the CDK4/6 inhibitor Abemaciclib in combination with LY4 differentially affects in vitro cell viability in 2D and 3D culture. FIG. 12A is a schematic illustration of the rationale for the combination of Abemaciclib and LY4. FIG. 12B is a bar graph showing the results of an in vitro treatment of Braf-mutant melanoma cells (WM35) with 0 nM, 10 nM, or 50 nM Abemaciclib for 1 week followed by 48 hour treatment with 2 μM LY4. FIG. 12C includes images of cells stained with DAPI following pre-treatment with Abemaciclib for 1 week, followed by treatment with 2 μM LY4. 5,000 cells were seeded on matrigel. In FIGS. 12D-12E, WM35 melanoma cells were pre-treated with Abemaciclib for 5 weeks, followed by treatment with LY4 in complete media and Abemaciclib. Cells were stained with Trypan blue to identify viable cells. FIG. 12D is a graph showing Abemaciclib sensitive cells. FIG. 12E is a graph showing Abemaciclib-resistant cells. FIG. 12F show images of cells stained with DAPI following pre-treatment with Abemaciclib for 5 weeks and co-treatment with 2 μM LY4 and Abemaciclib. 1,000 cells were seeded on matrigel. […]

Cc1cc(NC(=O)[C@H](O)c2cc(F)cc(F)c2)ccc1-c1cnc(N)c(C(=O)NC(C)C)c1 [LY4, 2-amino-5-[4-[[(2R)-2-(3,5-difluorophenyl)-2-hydroxy-acetyl]amino]-2-methyl-phenyl]-N-isopropyl-pyridine-3-carboxamide]
P-PERK and P-eIF2α levels in mammary gland ducts and pancreatic tissue (PERK): significant decrease in P-PERK and P-eIF2α levels | tumors remaining in complete cytostasis (HER2^+ tumors; 2-week treatment, 7% in controls): 43% | tumors showing regression (HER2^+ tumors; 2-week window treatment): 25% | P-HER2 levels in tumors (IHC score) (HER2^+ tumors; 50 mpk, two weeks): significantly lower levels of P-HER2 than control animals | TUNEL staining of tumor sections (DNA fragmentation) (HER2^+ tumors; 50 mpk, two weeks): significant increase in the levels of DNA fragmentation | median final tumor volume (HER2^+ tumors; 50 mpk, two weeks): significant decrease in median final tumor volume | proliferation in tumors (P-histone H3 IHC) (HER2^+ tumors; 50 mpk, two weeks): not different between vehicle- and LY4-treated tumors | tumor growth rate (HER2^+ tumors; 50 mpk, two weeks): reduced growth rate | cytokeratin 8/18 expression in the luminal layer of mammary ducts (MMTV-HER2 mammary glands): increased expression of cytokeratin 8/18 in the luminal layer | number of occluded hyperplasias and DCIS-like lesions (MMTV-HER2 mammary glands): reduced to less than half of that in vehicle-treated animals | hollow lumen mammary gland ducts, share of structures (MMTV-HER2 mammary glands; around 20% in control females): more than 60% | viability of Abemaciclib resistant WM35 cells, 3D [1]: additive effect on decreasing viability in 3D cell culture
